This data set is described as follows: Stability of free peptide incubated in release medium (HPLC). Format: physicochemical. To be noted: free peptide incubated in release medium (PBS, pH 7.2, 37 C), after 49 days. Here is the method:
Octreotide acetate as the free peptide was measured to be 95% intact by high-pressure liquid chromatography (HPLC) following incubation in the release medium (PBS, pH 7.2, 37° C.) after 49 days. In contrast, incubation of octreotide acetate PLGA microparticle formulations produced 55% of modified peptide species after 70 days in the release medium (PBS, pH 7.2, 37° C., Table 2). […] The masses found were consistent with random acylation, for example, peptide plus one or two glycolic or lactic acid monomers in any combination. It may be that acylation products arise from attack on PLGA fragments or the polymer backbone by nucleophilic moieties in octreotide. At a lower pH these moieties likely would be protonated reducing their nucleophilicity and consequently the amount of acylated product. It was observed that formation of acylated byproducts for octreotide acetate PLGA microparticles incubated in 100 mM sodium acetate (NaOAc, pH 4.0) buffer was reduced to 1.25% at 49 days, in marked contrast to the results for PBS buffer (55%).

`C[C@@H](O)[C@@H]1NC(=O)[C@H](CCCCN)NC(=O)[C@@H](Cc2c[nH]c3ccccc23)NC(=O)[C@H](Cc2ccccc2)NC(=O)[C@@H](NC(=O)[C@H](N)Cc2ccccc2)CSSC[C@@H](C(=O)N[C@H](CO)[C@@H](C)O)NC1=O` [Octreotide acetate]: the “Peptide intact by HPLC” value is recorded as 95%.

For the origin of these results see patent publication US8871269B2, “Method for the preparation of controlled release formulations” (Evonik Corporation, priority 2003, dated 2014).
